Experimental data from patent publication US11959909B2, “Basal ganglia-on-chip for screening therapeutic agents for brain and nervous system diseases” (priority 2018, dated 2024).
Entries after “also recorded” stand apart in the source; their conditions may differ.

Tested on: dopaminergic neurons
Test: Drug screening on Parkinson's disease-like basal ganglia-on-a-chip model (6-OHDA induced)
Format: cell-based
Details: 50 μM L-dopa after Parkinson's disease-like model established with 100 μM 6-OHDA
Excerpt: In order to fabricate a basal ganglia-on-a-chip, SH-SY5Y (ATCC CRL-2266) was used as dopaminergic neurons, and F3-NG1 (provided from professor Hong-Joon Lee at Chung-Ang University) were allowed to differentiate and then used as GABAergic neurons and glutamatergic neurons. Parkinson's disease is caused by the gradual loss of dopaminergic neurons distributed in the substantia nigra. 6-Hydroxydopamine (6-OHDA) causes oxidative stress to induce mitochondrial migration of c-Jun N-terminal kinase (JNK), and the activated JNK after mitochondrial migration causes mitochondrial dysfunction, contributing to apoptosis of dopaminergic neurons, occurring in Parkinson's disease. Based on this, a Parkinson's disease model was developed using 100 μM 6-OHDA.

Compound: N[C@@H](Cc1ccc(O)c(O)c1)C(=O)O [L-dopa, L-3,4-dihydroxyphenylalanine]
- proliferation of dopaminergic neurons: increase in the proliferation of dopaminergic neurons; also recorded: proliferation of dopaminergic neurons was confirmed
